SMILES strings stand for the structures.

The subject of one series is Hepatitis C virus. Put plainly: Antiviral activity against Hepatitis C virus infected in human Huh7ET cells assessed as inhibition of viral replication at 0.02 to 5 uM after 24 hrs by luciferase reporter gene assay. In kind it is functional, Hepacivirus hominis, Huh-7. (Reporter assays use an easily measured gene product as a stand-in for the process of interest.)
Series [1] is described as follows: Cytotoxicity against human PBMC assessed as cell viability at 10 uM after 18 hrs relative to control. Particulars: read-out: Activity. In kind it is cell-based.
Series [2] in a line: Cmax in Sprague-Dawley rat liver at 10 mg/kg, po by LC/MS/MS analysis. In kind it is ADME, organism-based. More on the design: dose 10 mg/kg, route oral.
Series [3] can be described thus: Apparent elimination half life in monkey at 1.4 mg/kg, iv by LC/MS/MS analysis. The series is classed as ADME, organism-based, Macaca mulatta. Set-up: dose 1.4 mg/kg, route intravenous. The following applies: rhesus monkey, in vivo.
The nature of series [4]: Cmax in Sprague-Dawley rat at 10 mg/kg, po after 24 hrs by LC/MS/MS analysis. In kind it is ADME, organism-based. Set-up: dose 10 mg/kg, route oral. Particulars: in vivo.
Series [5] in a line: AUC (0 to infinity) in Sprague-Dawley rat at 20 mg/kg, po after 24 hrs by LC/MS/MS analysis. In kind it is ADME, organism-based. Set-up: time infinity, dose 20 mg/kg, route oral. The following applies: plasma.
Series [6] can be described thus: Cmax in monkey at 15 mg/kg, po after 24 hrs by LC/MS/MS analysis. In kind it is ADME, organism-based, Macaca mulatta. Set-up: dose 15 mg/kg, route oral. Particulars: rhesus monkey, in vivo.
A short description of series [7]: Systemic clearance in monkey at 1.4 mg/kg, iv after 24 hrs by LC/MS/MS analysis. Particulars: rhesus monkey, in vivo. Set-up: dose 1.4 mg/kg, route intravenous. In kind it is ADME, organism-based, Macaca mulatta.

As usually defined, the Cmax is the peak of the concentration-time curve. In general, half-life refers to the time needed for the level to fall by half in the phase considered. As usually defined, the AUC(0-inf) is total exposure, with the tail of the curve extrapolated. As a reminder, the clearance is a measure of how efficiently the substance is removed, as volume per time. As for `C/C=C/C[C@@H](C)[C@@H](O)[C@H]1C(=O)N[C@@H](CC)C(=O)N(C)C(SCCN(C)C)C(=O)N(C)[C@@H](CC(C)(C)O)C(=O)N[C@@H](C(C)C)C(=O)N(C)[C@@H](CC(C)C)C(=O)N[C@@H](C)C(=O)N[C@H](C)C(=O)N(C)[C@@H](CC(C)C)C(=O)N(C)[C@@H](CC(C)C)C(=O)N(C)[C@@H](C(C)C)C(=O)N1C` (single isomer, unassigned) [SCY 635], the “inhibition (INH)” value with Hepatitis C virus is 70%. For the same molecule, in series [1], the viability at 18 h, 10 µM was 10.9%. For the same molecule, the maximum concentration (Cmax) is 11100 ng/mL in series [2], 1400 ng/mL in series [4] and 2430 ng/mL in series [6]. The half-life in series [3] was 42.2 h. Also, the AUC(0-inf) in series [5] stood at 42500 ng·h/mL. In addition, in series [7], the clearance is 0.47 mL/min/kg.

For the origin of these results see ChEMBL document CHEMBL1212786 (Antimicrob Agents Chemother, 2010).
